# Measured values: patent US20200392150A1, “Diaryl-B-Lactam Compound and Preparation Method and Pharmaceutical Use Thereof” (Fudan University, priority 2016, published 2020)
# Entries after “also recorded” stand apart in the source; their conditions may differ.
# Experiments:
# [1] = system: A2780 cells xenograft; experiment: Xenografts tumor growth assay in nude mice; assay type: in vivo, Balb/c nude mice; conditions: i.p. once every 2 days, 69 7.5 mg/kg, 70 12.5 mg/kg, 97 4 or 8 mg/kg
# Procedure: 6 weeks old female Balb/c nude mice were purchased from Shanghai Slac Laboratory Animal Co. Ltd. (Shanghai, China). 2*10^6 A2780 cells suspended in 0.2 mL PBS per mouse was injected subcutaneously into the nude mice. […] Administration of agents or vehicle, or agents and measurement of tumor volumes with a digital caliper was done once every 2 days. Tumor volumes were calculated as volume=shortest diameter (W)^2*longest diameter (L)*0.52. When the average tumor volumes of vehicle treated group reached 2000 mm^3 in diameter, the mice were sacrificed and the tumors were isolated and weighed. Visceral organs of the mice as well as solid tumors were further analyzed by H&E staining.
# [2] = system: KM mice; experiment: Acute toxicity assay; assay type: in vivo; conditions: for No. of dead mice 5-14 days / No. of dead mice 1 day / No. of dead mice 2 days / No. of dead mice 3 days / No. of dead mice 4 days / Survival (%) on day 14 / Total death: single i.p. injection
# Procedure: KM mice were housed individually in a specific pathogen free facility. Groups of mice (n=10 per group, half male and half female) were injected intraperitoneally once with various dosages of 69 (95, 70, 50, 35, 25 mg/kg), 70 (500, 425, 350, 275, 200 mg/kg), 97 (275, 200, 150, 125 and 100 mg/kg) or vehicle (8.3% cremohorp EL and 8.3% alcohol in PBS) as negative control, respectively. 69, 70 and 97 was dissolved in cremeohore EL and alcohol mixture (1:1, v/v) and further diluted with PBS (1:5, v/v). The death of mice were monitored daily and recorded up to 14 days after injection.
# [3] = system: tubulin in Hela cells; experiment: Immunoblotting analysis of polymerized/depolymerized tubulin; assay type: cell-based, human; conditions: 6 h
# Procedure: After being treated with diluent (0.2% DMSO), tested compound, CA-4 or PTX for 6 h, Hela cells were lysed with microtubulestabilizing buffer, containing 100 mM PIPES, pH 6.8, 1 mM MgCl2, 2 mM EGTA, 0.5% NP-40, 2 M glycerol, 5 μM PTX and protease inhibitors cocktail (Roche), and the lysate was centrifuged at 15,000 rpm for 15 min. Supernatant containing depolymerized tubulin was carefully collected, whereas pellet (polymerized tubulin) was further dissolved in SDS-lysis buffer (Beyotime, China). Equal amounts of supernatant and dissolved pellet were subjected to immunoblotting analysis as described above using atubulin antibody (Proteintech).
# [4] = system: Hela; experiment: In vitro cell growth inhibition assay (MTT); assay type: cell-based, human; conditions: Hela human cervical cancer cell line, 48 h, MTT; read-out: IC50 Hela
# In short: (§1)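 5000 cells/well, overnight attachment; compounds 48 h (vehicle 0.2% DMSO); MTT 0.5 mg/mL, 4 h, 37° C; formazan in DMSO; A540. IC50 from growth inhibition rates.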
# [5] = system: A2780; experiment: In vitro cell growth inhibition assay (MTT); assay type: cell-based, human; conditions: A2780 human ovarian cancer cell line, 48 h, MTT; read-out: IC50 A2780
# In short: as §1
# [6] = system: SKOV3; experiment: In vitro cell growth inhibition assay (MTT); assay type: cell-based, human; conditions: SK-OV-3; SKOV-3 human ovarian cancer cell line, 48 h, MTT; read-out: IC50 SKOV3
# In short: as §1
# [7] = system: MDA-MB-231; experiment: In vitro cell growth inhibition assay (MTT); assay type: cell-based, human; conditions: MDA-MB-231 human breast cancer cell line, 48 h, MTT; read-out: IC50 MDA-MB-231
# In short: as §1
smiles,measurement,setting,value
"COc1ccc([C@H]2[C@H](CO)C(=O)N2c2cc(OC)c(OC)c(OC)c2)cc1O [Compound 69, (3R,4R)-4-(3-hydroxy-4-methoxyphenyl)-3-(hydroxymethyl)-1-(3,4,5-trimethoxyphenyl)azetidin-2-one]","H&E staining of liver, kidney and spleen",[1],"no abnormal areas are observed in tissue staining of liver, kidney and spleen; also recorded: no detectable abnormalities were observed in liver, kidney and spleen"
same,H&E staining of tumor sections,[1],cause tumor tissue to produce necrotic areas; also recorded: extensive areas of necrosis or cell death
same,mouse body weight,[1],no significant influence on mouse body weight; also recorded: no significant weight loss observed
same,tumor growth in vivo,[1],significantly inhibit tumor growth in vivo; also recorded: anti-tumor activities in vivo
same,No. of dead mice 5-14 days,[2]; 25 mg/kg,0
same,No. of dead mice 1 day,[2]; 25 mg/kg,0
same,No. of dead mice 2 days,[2]; 25 mg/kg,0
same,No. of dead mice 3 days,[2]; 25 mg/kg,0
same,No. of dead mice 4 days,[2]; 25 mg/kg,0
same,Survival (%) on day 14,[2]; 25 mg/kg,100%
same,Total death,[2]; 25 mg/kg,0
same,No. of dead mice 5-14 days,[2]; 35 mg/kg,0
same,No. of dead mice 1 day,[2]; 35 mg/kg,0
same,No. of dead mice 2 days,[2]; 35 mg/kg,0
same,No. of dead mice 3 days,[2]; 35 mg/kg,1
same,No. of dead mice 4 days,[2]; 35 mg/kg,0
same,Survival (%) on day 14,[2]; 35 mg/kg,90%
same,Total death,[2]; 35 mg/kg,1
same,No. of dead mice 5-14 days,[2]; 50 mg/kg,0
same,No. of dead mice 1 day,[2]; 50 mg/kg,0
same,No. of dead mice 2 days,[2]; 50 mg/kg,0
same,No. of dead mice 3 days,[2]; 50 mg/kg,1
same,No. of dead mice 4 days,[2]; 50 mg/kg,0
same,Survival (%) on day 14,[2]; 50 mg/kg,90%
same,Total death,[2]; 50 mg/kg,1
same,No. of dead mice 5-14 days,[2]; 70 mg/kg,1
same,No. of dead mice 1 day,[2]; 70 mg/kg,0
same,No. of dead mice 2 days,[2]; 70 mg/kg,0
same,No. of dead mice 3 days,[2]; 70 mg/kg,4
same,No. of dead mice 4 days,[2]; 70 mg/kg,2
same,Survival (%) on day 14,[2]; 70 mg/kg,30%
same,Total death,[2]; 70 mg/kg,7
same,No. of dead mice 5-14 days,[2]; 95 mg/kg,1
same,No. of dead mice 1 day,[2]; 95 mg/kg,0
same,No. of dead mice 2 days,[2]; 95 mg/kg,0
same,No. of dead mice 3 days,[2]; 95 mg/kg,6
same,No. of dead mice 4 days,[2]; 95 mg/kg,1
same,Survival (%) on day 14,[2]; 95 mg/kg,20%
same,Total death,[2]; 95 mg/kg,8
same,LD50,"[2]; single intraperitoneal injection, 14 days",61.5 mg/kg
same,polymerized tubulin (immunoblotting),[3],significantly inhibit tubulin aggregation; also recorded: dramatically reduction of polymerized tubulin
"COc1ccc([C@H]2[C@H](C)C(=O)N2c2cc(OC)c(OC)c(OC)c2)cc1O [Compound 97, (3S,4R)-4-(3-hydroxy-4-methoxyphenyl)-3-methyl-1-(3,4,5-trimethoxyphenyl)azetidin-2-one]","H&E staining of liver, kidney and spleen",[1],"no abnormal areas are observed in tissue staining of liver, kidney and spleen; also recorded: no detectable abnormalities were observed in liver, kidney and spleen"
same,H&E staining of tumor sections,[1],cause tumor tissue to produce necrotic areas; also recorded: extensive areas of necrosis or cell death
same,mouse body weight,[1],no significant influence on mouse body weight; also recorded: no significant weight loss observed
same,tumor growth in vivo,[1],significantly inhibit tumor growth in vivo; also recorded: anti-tumor activities in vivo
same,IC50,[4],1 nM
same,IC50,[5],2 nM
same,IC50,[6],3 nM
same,IC50,[7],3 nM
same,No. of dead mice 5-14 days,[2]; 100 mg/kg,0
same,No. of dead mice 1 day,[2]; 100 mg/kg,0
same,No. of dead mice 2 days,[2]; 100 mg/kg,0
same,No. of dead mice 3 days,[2]; 100 mg/kg,1
same,No. of dead mice 4 days,[2]; 100 mg/kg,0
same,Survival (%) on day 14,[2]; 100 mg/kg,90%
same,Total death,[2]; 100 mg/kg,1
same,No. of dead mice 5-14 days,[2]; 125 mg/kg,0
same,No. of dead mice 1 day,[2]; 125 mg/kg,0
same,No. of dead mice 2 days,[2]; 125 mg/kg,2
same,No. of dead mice 3 days,[2]; 125 mg/kg,1
same,No. of dead mice 4 days,[2]; 125 mg/kg,0
same,Survival (%) on day 14,[2]; 125 mg/kg,70%
same,Total death,[2]; 125 mg/kg,3
same,No. of dead mice 5-14 days,[2]; 150 mg/kg,0
same,No. of dead mice 1 day,[2]; 150 mg/kg,2
same,No. of dead mice 2 days,[2]; 150 mg/kg,4
same,No. of dead mice 3 days,[2]; 150 mg/kg,0
same,No. of dead mice 4 days,[2]; 150 mg/kg,0
same,Survival (%) on day 14,[2]; 150 mg/kg,40%
same,Total death,[2]; 150 mg/kg,6
same,No. of dead mice 5-14 days,[2]; 200 mg/kg,0
same,No. of dead mice 1 day,[2]; 200 mg/kg,1
same,No. of dead mice 2 days,[2]; 200 mg/kg,4
same,No. of dead mice 3 days,[2]; 200 mg/kg,2
same,No. of dead mice 4 days,[2]; 200 mg/kg,0
same,Survival (%) on day 14,[2]; 200 mg/kg,30%
same,Total death,[2]; 200 mg/kg,7
same,No. of dead mice 5-14 days,[2]; 275 mg/kg,0
same,No. of dead mice 1 day,[2]; 275 mg/kg,2
same,No. of dead mice 2 days,[2]; 275 mg/kg,4
same,No. of dead mice 3 days,[2]; 275 mg/kg,2
same,No. of dead mice 4 days,[2]; 275 mg/kg,1
same,Survival (%) on day 14,[2]; 275 mg/kg,10%
same,Total death,[2]; 275 mg/kg,9
same,polymerized tubulin (immunoblotting),[3],significantly inhibit tubulin aggregation; also recorded: dramatically reduction of polymerized tubulin
